From PMC5571359, “Screening the Medicines for Malaria Venture Pathogen Box across Multiple Pathogens Reclassifies Starting Points for Open-Source Drug Discovery” (Antimicrobial Agents and Chemotherapy, 2017)
Like-named read-outs stand apart in the source and are kept apart here.

Tests used:
[1] = tested on: liver stage; details: cited from earlier work
[2] = tested on: P. falciparum ABS; details: cited from earlier work; for EC50: ChEMBL Data; for IC50: read-out: Pf 3D7 Pbox IC50
[3] = tested on: HepG2; details: cited from earlier work
[4] = tested on: Plasmodium falciparum 3D7 asexual blood stage; assay: microbe, parasite or virus in culture
[5] = tested on: HEK293 cells; assay: HEK293 resazurin cell cytotoxicity assay; details: Homo sapiens; for inhibition at 20 µM: HEK293, read-out: HEK % Inhibition 20uM/IC50 Discovery Biology; for IC50: HEK293, read-out: HEK % Inhibition 20uM/IC50 Discovery Biology (IA)
[6] = tested on: NF54-pfs16-LUC-GFP stage IV gametocytes; assay: Plasmodium falciparum late stage gametocyte (LSG) image-based assay; assay type: cell-based; details: Plasmodium falciparum
[7] = tested on: T. b. brucei 427 bloodstream trypanosomes; assay: T. b. brucei resazurin viability assay; assay type: cell-based, Trypanosoma brucei brucei; details: Trypanosoma brucei
[8] = liver stage, ref Pathogen Box supporting information, read-out: LIVER STAGE Pbox IC50
[9] = NITD, read-out: NITD (ref 94) EC50
[10] = Pf 3D7, ref Pathogen Box supporting information
[11] = read-out: HepG2 PBox CC50 µM, HepG2 CC50, ref Pathogen Box supporting information
[12] = TCMDC, read-out: TCMDC (ref 93) EX50
[13] = 3D7, read-out: Antiplasmodial IC50 (ABS)
[14] = 3D7, read-out: Antiplasmodial IC50 (ABS), PBox compounds, P. falciparum 3D7
[15] = TCMDC set, P. falciparum, read-out: TCMDC (ref 93) EX50
[16] = read-out: HepG2 PBox CC50 µM, HepG2 cytotoxicity, ref PBox supporting information
[17] = P. falciparum 3D7, ref PBox supporting information
[18] = read-out: T b.brucei Discovery Biology IC50
[19] = ref Pbox supporting information

SMILES: O=C1Nc2ccc(Br)cc2C12NCCc1c2[nH]c2ccccc12 (stereo not shown) [MMV006239]
- IC50 [1, 8]: > 10000 nM
- EC50 [2, 9]: 200 nM
- IC50 [2, 10]: 510 nM
- CC50 [3, 11]: > 10 µM

SMILES: CCOc1ccc(-c2nc(NC(=O)CS(=O)(=O)c3ccccc3)sc2C)cc1 [MMV007638]
- IC50 [1, 8]: > 10000 nM
- EC50 [2, 9]: 530 nM
- EC50 [2, 12]: 510 nM
- IC50 [2, 10]: 660 nM
- CC50 [3, 11]: > 10 µM

SMILES: Nc1ccc(C(=O)Nc2ccc(-c3nc4ccccc4o3)cc2)cc1 [MMV007920]
- IC50 [1, 8]: > 10000 nM
- EC50 [2, 9]: 940 nM
- IC50 [2, 10]: 1550 nM
- CC50 [3, 11]: > 10 µM

SMILES: COc1ccc(CN2CCOc3ccc(C(C)(O)CN(C)C)cc3C2)cc1C (stereo not shown) [MMV008439]
- IC50 [1, 8]: 930 nM
- EC50 [2, 9]: 820 nM
- IC50 [2, 10]: > 2000 nM
- CC50 [3, 11]: > 10 µM

SMILES: Cc1cc(C(=O)Nc2cnn(Cc3ccc(Cl)cc3Cl)c2)no1 [MMV009054]
- IC50 [1, 8]: 1390 nM
- EC50 [2, 9]: 620 nM
- IC50 [2, 10]: 1880 nM
- CC50 [3, 11]: > 10 µM

SMILES: c1csc(-c2cnc3sc(NCC4CCOCC4)nn23)c1 [MMV010764]
- IC50 [1, 8]: > 10000 nM
- IC50 [2, 10]: 1370 nM
- CC50 [3, 11]: > 10 µM

SMILES: NCC(=O)N1CCn2c(nc(-c3ccccc3)c2Nc2ccc3c(c2)OCO3)C1 [MMV011691]
- IC50 [1, 8]: 3780 nM
- EC50 [2, 9]: 160 nM
- IC50 [2, 10]: 640 nM
- CC50 [3]: > 10 µM

SMILES: Cc1cc(C)n2nc(C(=O)Nc3cc(C(F)(F)F)ccc3N3CCOCC3)nc2n1 [MMV019087]
- IC50 [1, 8]: 1210 nM
- EC50 [2, 12]: 120 nM
- IC50 [2, 10]: 220 nM
- CC50 [3, 11]: > 10 µM

SMILES: CO/C=C(/C(=O)OC)c1ccccc1Oc1cc(Oc2ccccc2C#N)ncn1 [MMV021057]
- IC50 [4, 13]: 0.04 µM
- IC50 ([4]; 3D7, read-out: Pf 3D7 Discovery Biology IC50 µM): 0.035 µM
- IC50 [2, 10]: 53.6 nM
- inhibition at 20 µM [5]: 71%
- IC50 ([6]; NF54, read-out: Antiplasmodial IC50 (GAM / LSG), PBox compounds, stage IV gametocytes, single determination): 0.03 µM

SMILES: Cc1cc(NCCc2ccccc2)nc(NC(=N)Nc2ccc(Cl)cc2)n1 [MMV021660]
- IC50 [4, 14]: 0.16 µM
- EC50 [2, 15]: 230 nM
- inhibition at 20 µM [5]: 100%
- CC50 [3, 16]: 6.5 µM

SMILES: c1cncc(NCc2ccc(-c3cc4ccncc4cc3OC3CCNCC3)s2)c1 [MMV023969]
- IC50 [4, 14]: 0.59 µM
- EC50 [2, 15]: 980 nM
- inhibition at 20 µM [5]: 86%
- CC50 [3, 16]: 8 µM

SMILES: NS(=O)(=O)c1cncc(-c2ccc3nccc(-c4cn[nH]c4)c3n2)c1 [MMV024101]
- IC50 [1, 8]: 2170 nM
- EC50 [2, 12]: 530 nM
- IC50 [2, 10]: 600 nM

SMILES: Cc1ccc2[nH]c(C3CCCNC3)c(-c3ccncc3)c2c1 (stereo not shown) [MMV024311]
- IC50 [4, 14]: 0.75 µM
- EC50 [2, 15]: 1230 nM
- IC50 ([7]; read-out: T b.brucei Discovery Biology IC50 µM): 5.15 µM
- CC50 [3, 16]: 12.7 µM

SMILES: O=C(NCCc1ccccc1)c1cc(-c2cccnc2)cnc1NCC1CC1 [MMV026490]
- EC50 ([2]; P. falciparum, read-out: TCMDC (ref 93) EX50): 850 nM
- IC50 [2, 17]: 1290 nM
- IC50 [7, 18]: 6.02 µM
- IC50 [5]: > 20000 nM

SMILES: O=C1COCc2ccc(Br)cc2N1Cc1ccc(C(F)(F)F)cc1 [MMV032995]
- IC50 [1, 19]: 2000 nM
- IC50 [2, 17]: 960 nM

SMILES: COc1cccc(-n2nnnc2S(C)(=O)=O)c1 [MMV272144]
- IC50 [7, 18]: 4.12 µM
- inhibition at 20 µM [5]: 100%
- IC50 ([6]; NF54, read-out: Pf Stage IV GAMS Discovery Biology IC50 µM, stage IV gametocytes, Discovery Biology): 1.92 µM
- CC50 [3, 16]: 1.7 µM

SMILES: CC(C)(C)c1cnc(NC(=O)c2ccccc2O)s1 [MMV495543]
- IC50 [7, 18]: 5.45 µM
- CC50 [3, 16]: 47.6 µM

SMILES: Brc1cncc(-c2cc(NCCCn3ccnc3)nc(-c3ccccc3)n2)c1 [MMV661713]
- IC50 [4, 14]: 1.49 µM
- IC50 ([4]; 3D7, read-out: activity against P. falciparum (novel antiplasmodial actives of the tuberculosis set)): < 2 µM

SMILES: Cc1[nH]c2cc(F)cc(F)c2c(=O)c1-c1ccc(Oc2ccc(OC(F)(F)F)cc2)cc1 [MMV671636]
- IC50 [4, 13]: 1.01 µM
- IC50 [5]: > 20000 nM
- HepG2 PBox CC20 μMc [3, 19]: >80000 nM

SMILES: COc1ccc(-c2nn(C(C)C)c3ncnc(N)c23)cc1OC [MMV675993]
- IC50 ([4]; 3D7, read-out: Pf 3D7 Discovery Biology IC50, P. falciparum 3D7 asexual blood stage): 1.07 µM
- inhibition at 20 µM [5]: 73%
- IC50 ([6]; NF54, read-out: Pf Stage IV GAMS Discovery Biology IC50, stage IV gametocytes): 1.95 µM
- HepG2 PBox CC20 ([3]; HepG2, ref PBox supporting information): 1600 nM
